In ChEMBL document CHEMBL1833788, “Selective water-soluble gelatinase inhibitor prodrugs” (J Med Chem, 2011):

Columns and labels:
Mus musculus [1] = assay: Prodrug conversion in C57B1/6 mouse plasma assessed as parent compound level at […], iv administered as single bolus dose after 7 to 8 mins by reversed-phase LC/MS analysis; type: ADME, organism-based; conditions: in vivo
Mus musculus [2] = assay: AUC (0 to last) in C57B1/6 mouse plasma assessed as parent compound level at […], iv administered as single bolus dose; type: ADME, organism-based; conditions: in vivo
Mus musculus [3] = assay: Prodrug conversion in C57B1/6 mouse plasma assessed as parent compound level at […], iv administered as single bolus dose after 120 to 123 mins by reversed-phase LC/MS analysis; type: ADME, organism-based; conditions: in vivo, read-out: Drug metabolism
Mus musculus [4] = assay: Prodrug conversion in C57B1/6 mouse plasma assessed as parent compound level at […], iv administered as single bolus dose after 2 to 3 mins by reversed-phase LC/MS analysis; type: ADME, organism-based; conditions: in vivo, read-out: Drug metabolism
Mus musculus [5] = assay: Prodrug conversion in C57B1/6 mouse assessed as 4-[4-((Thiiran-2-yl)methylsulphonyl)phenoxy]benzamine level in plasma at […], iv administered as single bolus dose after 22 mins by reversed-phase HPLC/UV analysis; type: ADME, organism-based; conditions: in vivo
Mus musculus [6] = assay: Prodrug conversion in C57B1/6 mouse assessed as N-(4-(4-(thiiran-2-ylmethylsulfonyl)phenoxy)phenyl)acetamide level in plasma at […], iv administered as single bolus dose after 4 to 5 mins by reversed-phase HPLC/UV analysis; type: ADME, organism-based; conditions: in vivo, read-out: Drug metabolism
Mus musculus [7] = assay: Distribution half life in C57B1/6 mouse plasma assessed as N-(4-(4-(thiiran-2-ylmethylsulfonyl)phenoxy)phenyl)acetamide level at […], iv administered as single bolus dose; type: ADME, organism-based; conditions: in vivo
Mus musculus [8] = assay: Prodrug conversion in C57B1/6 mouse assessed as 4-[4-((Thiiran-2-yl)methylsulphonyl)phenoxy]benzamine level in plasma at […], iv administered as single bolus dose after 120 to 123 mins by reversed-phase HPLC/UV analysis; type: ADME, organism-based; conditions: in vivo
Mus musculus [9] = assay: Prodrug conversion in C57B1/6 mouse assessed as 4-[4-((Thiiran-2-yl)methylsulphonyl)phenoxy]benzamine level in plasma at […], iv administered as single bolus dose after 2 to 3 mins by reversed-phase HPLC/UV analysis; type: ADME, organism-based; conditions: in vivo
Mus musculus [10] = assay: Distribution half life in C57B1/6 mouse plasma assessed as parent compound level at […], iv administered as single bolus dose; type: ADME, organism-based; conditions: in vivo
Mus musculus [11] = assay: Prodrug conversion in C57B1/6 mouse assessed as N-(4-(4-(thiiran-2-ylmethylsulfonyl)phenoxy)phenyl)acetamide level in plasma at […], iv administered as single bolus dose after 11 to 12 mins by reversed-phase LC/MS analysis; conditions: in vivo
Mus musculus [12] = assay: Prodrug conversion in C57B1/6 mouse plasma assessed as parent compound level at […], iv administered as single bolus dose after 22 mins by reversed-phase LC/MS analysis; type: ADME, organism-based; conditions: in vivo, read-out: Drug metabolism
Mus musculus [13] = assay: Prodrug conversion in C57B1/6 mouse plasma assessed as parent compound level at […], iv administered as single bolus dose after 62 to 66 mins by reversed-phase LC/MS analysis; type: ADME, organism-based; conditions: in vivo, read-out: Drug metabolism
Mus musculus [14] = assay: AUC (0 to last) in C57B1/6 mouse plasma assessed as 4-[4-((Thiiran-2-yl)methylsulphonyl)phenoxy]benzamine level at […], iv administered as single bolus dose; type: ADME, organism-based; conditions: in vivo
Mus musculus [15] = assay: Prodrug conversion in C57B1/6 mouse plasma assessed as parent compound level at […], iv administered as single bolus dose after 240 mins by reversed-phase LC/MS analysis; type: ADME, organism-based; conditions: in vivo, 4 h, read-out: Drug metabolism
Mus musculus [16] = assay: Prodrug conversion in C57B1/6 mouse assessed as N-(4-(4-(thiiran-2-ylmethylsulfonyl)phenoxy)phenyl)acetamide level in plasma at […], iv administered as single bolus dose after 22 mins by reversed-phase HPLC/UV analysis; type: ADME, organism-based; conditions: in vivo
Mus musculus [17] = assay: Prodrug conversion in C57B1/6 mouse assessed as 4-[4-((Thiiran-2-yl)methylsulphonyl)phenoxy]benzamine level in plasma at […], iv administered as single bolus dose after 62 to 66 mins by reversed-phase HPLC/UV analysis; type: ADME, organism-based; conditions: in vivo, read-out: Drug metabolism
Mus musculus [18] = assay: Prodrug conversion in C57B1/6 mouse assessed as 4-[4-((Thiiran-2-yl)methylsulphonyl)phenoxy]benzamine level in plasma at […], iv administered as single bolus dose after 42 mins by reversed-phase HPLC/UV analysis; type: ADME, organism-based; conditions: in vivo, 0.7 h, read-out: Drug metabolism
Mus musculus [19] = assay: Prodrug conversion in C57B1/6 mouse assessed as 4-[4-((Thiiran-2-yl)methylsulphonyl)phenoxy]benzamine level in plasma at […], iv administered as single bolus dose after 4 to 5 mins by reversed-phase HPLC/UV analysis; type: ADME, organism-based; conditions: in vivo
Mus musculus [20] = assay: Prodrug conversion in C57B1/6 mouse assessed as N-(4-(4-(thiiran-2-ylmethylsulfonyl)phenoxy)phenyl)acetamide level in plasma at […], iv administered as single bolus dose after 7 to 8 mins by reversed-phase LC/MS analysis; conditions: in vivo
Mus musculus [21] = assay: Prodrug conversion in C57B1/6 mouse plasma assessed as parent compound level at […], iv administered as single bolus dose after 42 mins by reversed-phase LC/MS analysis; type: ADME, organism-based; conditions: in vivo, 0.7 h
Mus musculus [22] = assay: Terminal half life in C57B1/6 mouse plasma assessed as N-(4-(4-(thiiran-2-ylmethylsulfonyl)phenoxy)phenyl)acetamide level at […], iv administered as single bolus dose; type: ADME, organism-based; conditions: in vivo, BLD = below limit of detection
Mus musculus [23] = assay: AUC (0 to infinity) in C57B1/6 mouse plasma assessed as parent compound level at […], iv administered as single bolus dose; type: ADME, organism-based; conditions: in vivo
Mus musculus [24] = assay: Prodrug conversion in C57B1/6 mouse plasma assessed as parent compound level at […], iv administered as single bolus dose after 11 to 12 mins by reversed-phase LC/MS analysis; type: ADME, organism-based; conditions: in vivo, read-out: Drug metabolism
Mus musculus [25] = assay: Terminal half life in C57B1/6 mouse plasma assessed as parent compound level at […], iv administered as single bolus dose; type: ADME, organism-based; conditions: in vivo
Mus musculus [26] = assay: Prodrug conversion in C57B1/6 mouse assessed as N-(4-(4-(thiiran-2-ylmethylsulfonyl)phenoxy)phenyl)acetamide level in plasma at […], iv administered as single bolus dose after 42 mins by reversed-phase HPLC/UV analysis; type: ADME, organism-based; conditions: in vivo, 0.7 h
Mus musculus [27] = assay: AUC (0 to last) in C57B1/6 mouse plasma assessed as N-(4-(4-(thiiran-2-ylmethylsulfonyl)phenoxy)phenyl)acetamide level at […], iv administered as single bolus dose; type: ADME, organism-based; conditions: in vivo
Mus musculus [28] = assay: Terminal half life in C57B1/6 mouse plasma assessed as 4-[4-((Thiiran-2-yl)methylsulphonyl)phenoxy]benzamine level at […], iv administered as single dose; type: ADME, organism-based; conditions: in vivo
Mus musculus [29] = assay: Distribution half life in C57B1/6 mouse plasma assessed as 4-[4-((Thiiran-2-yl)methylsulphonyl)phenoxy]benzamine level at […], iv administered as single dose; type: ADME, organism-based; conditions: in vivo
Mus musculus [30] = assay: AUC (0 to infinity) in C57B1/6 mouse plasma assessed as N-(4-(4-(thiiran-2-ylmethylsulfonyl)phenoxy)phenyl)acetamide level at […], iv administered as single bolus dose; type: ADME, organism-based; conditions: in vivo, BLD = below limit of detection
Mus musculus [31] = assay: Prodrug conversion in C57B1/6 mouse assessed as 4-[4-((Thiiran-2-yl)methylsulphonyl)phenoxy]benzamine level in plasma at […], iv administered as single bolus dose after 240 mins by reversed-phase HPLC/UV analysis; type: ADME, organism-based; conditions: in vivo, 4 h, read-out: Drug metabolism

Work on `Cl.N=C(N)NCCC[C@H](N)C(=O)Nc1ccc(Oc2ccc(S(=O)(=O)CC3CS3)cc2)cc1` (stereo partly specified) yielded a Drug metabolism (Mus musculus [1]) of 1.28 µM, an AUClast (Mus musculus [2]) of 360 µM·min and a concentration (Mus musculus [3]) of 17.1 nM. The concentration (Mus musculus [4]) was 35.1 µM, the Drug metabolism (Mus musculus [5]) was 0.787 µM and the concentration (Mus musculus [6]) was 231 nM. For the same compound, the alphat1/2 (Mus musculus [7]) was 12 min, the Drug metabolism (Mus musculus [8]) was 0.0248 µM and the Drug metabolism (Mus musculus [9]) was 12.3 µM. For the same compound, the alphat1/2 (Mus musculus [10]) was 0.88 min, the Drug metabolism (Mus musculus [11]) was 0.149 µM and the concentration (Mus musculus [12]) was 138 nM. It also gave a concentration (Mus musculus [13]) of 38.5 nM, an AUClast (Mus musculus [14]) of 137 µM·min and a concentration (Mus musculus [15]) of 8.3 nM. The Drug metabolism (Mus musculus [16]) was 0.0627 µM, the concentration (Mus musculus [17]) was 90.8 nM and the concentration (Mus musculus [18]) was 207 nM. It also gave a Drug metabolism (Mus musculus [19]) of 10.4 µM, a Drug metabolism (Mus musculus [20]) of 0.176 µM and a Drug metabolism (Mus musculus [21]) of 0.0872 µM. The “beta t1/2” value (Mus musculus [22]) was “BLD”, the AUC (Mus musculus [23]) was 363 µM·min and the concentration (Mus musculus [24]) was 1580 nM. For the same compound, the “beta t1/2” value (Mus musculus [25]) was 260 min, the Drug metabolism (Mus musculus [26]) was 0.0358 µM and the AUClast (Mus musculus [27]) was 4.22 µM·min. The “beta t1/2” value (Mus musculus [28]) was 69 min, the alphat1/2 (Mus musculus [29]) was 2.9 min and the AUC (Mus musculus [30]) was “BLD”. The concentration (Mus musculus [31]) was 14.5 nM.
